Experimental data from ChEMBL document CHEMBL1201862, “PubChem BioAssay data set” (2004).
Active and inactive are the calls of the source.

Experiments:
[1] = target: T1, Corticotropin-releasing factor receptor 2/Corticotropin-releasing factor-binding protein (Homo sapiens, UniProt P24387+Q13324); experiment: Dose Response confirmation of uHTS hits for small molecule antagonists of the CRF-binding protein and CRF-R2 receptor complex.; type: functional; conditions: read-out: IC50_Mean
T1 sequence (Q13324 whole entry): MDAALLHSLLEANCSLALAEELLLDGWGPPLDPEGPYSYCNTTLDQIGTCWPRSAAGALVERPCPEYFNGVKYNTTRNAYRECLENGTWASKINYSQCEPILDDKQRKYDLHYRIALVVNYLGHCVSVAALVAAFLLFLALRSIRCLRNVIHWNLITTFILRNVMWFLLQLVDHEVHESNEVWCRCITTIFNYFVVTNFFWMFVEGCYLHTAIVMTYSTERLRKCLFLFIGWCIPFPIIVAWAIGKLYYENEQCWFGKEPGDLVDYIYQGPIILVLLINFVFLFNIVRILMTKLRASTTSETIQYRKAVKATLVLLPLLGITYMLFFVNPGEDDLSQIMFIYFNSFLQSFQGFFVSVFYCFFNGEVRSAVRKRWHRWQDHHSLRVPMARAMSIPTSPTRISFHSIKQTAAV
T1 sequence (P24387 whole entry): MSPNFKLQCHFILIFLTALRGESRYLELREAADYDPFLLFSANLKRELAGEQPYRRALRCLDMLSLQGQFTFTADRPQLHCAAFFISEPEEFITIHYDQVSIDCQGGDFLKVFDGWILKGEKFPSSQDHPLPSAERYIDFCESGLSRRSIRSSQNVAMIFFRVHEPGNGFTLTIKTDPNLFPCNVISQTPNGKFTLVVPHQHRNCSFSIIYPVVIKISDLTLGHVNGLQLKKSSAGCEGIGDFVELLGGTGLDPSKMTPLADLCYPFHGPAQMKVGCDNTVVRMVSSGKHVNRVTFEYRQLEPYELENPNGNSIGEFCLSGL

[2] = target: T1, Corticotropin-releasing factor receptor 2/Corticotropin-releasing factor-binding protein; experiment: activators of CRF receptor 2 with binding protein – uHTS hits, confirmation (AID 602473); type: functional; conditions: read-out: EC50_Mean
[3] = blockers of CRF-binding protein–CRF-R2 complex – cell-based, uHTS hits, 384-well, dose response (AID 651639); type: functional, Homo sapiens; conditions: read-out: IC50_Mean
[4] = antileishmanial activity on axenic amastigotes – plate reader, cherry pick, dose response (AID 651891); type: functional, cell-based; conditions: Leishmania donovani
[5] = African trypanosome bloodstream form growth inhibition – STIB900 strain, plate reader, cherry pick, dose response (AID 651893); type: functional, cell-based, Trypanosoma brucei rhodesiense; conditions: Trypanosoma brucei
[6] = Inhibition of T. cruzi Tulahuen strain amastigotes in L-6 muscle cells Measured in Cell-Based and Microorganism Combination System Using Plate Reader - 2138-03_Inhibitor_Dose_CherryPick_Activity.; type: functional; conditions: Rattus norvegicus, L6
[7] = L6 myocyte viability loss – cell-based, plate reader, cherry-pick, cytotoxicity control, dose response (AID 651896); type: functional
[8] = intracellular Trypanosoma cruzi inhibitors in host cells – cell-based, plate reader, cherry-pick samples, set 3, dose response (AID 651818); type: functional;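 note: compounds incubated with infected cells for about four days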
[9] = Inhibition of Plasmodium falciparum NF54 Measured in Cell-Based System Using Plate Reader - 2138-11_Inhibitor_Dose_CherryPick_Activity.; type: functional
[10] = cytotoxicity toward MDA-MB-231 breast cancer cells – cell-based, CellTiter-Glo luminescence, cherry-pick, cytotoxicity control for RAD54 inhibitor project, dose response (AID 651692); type: functional
[11] = target: T2, DNA repair and recombination protein RAD54-like (Homo sapiens, UniProt Q92698); experiment: RAD54 Holliday junction migration blockers – biochemical, fluorescence, cherry-picked samples, dose series, confirmation (AID 651657); type: functional
T2 sequence (Q92698 whole entry): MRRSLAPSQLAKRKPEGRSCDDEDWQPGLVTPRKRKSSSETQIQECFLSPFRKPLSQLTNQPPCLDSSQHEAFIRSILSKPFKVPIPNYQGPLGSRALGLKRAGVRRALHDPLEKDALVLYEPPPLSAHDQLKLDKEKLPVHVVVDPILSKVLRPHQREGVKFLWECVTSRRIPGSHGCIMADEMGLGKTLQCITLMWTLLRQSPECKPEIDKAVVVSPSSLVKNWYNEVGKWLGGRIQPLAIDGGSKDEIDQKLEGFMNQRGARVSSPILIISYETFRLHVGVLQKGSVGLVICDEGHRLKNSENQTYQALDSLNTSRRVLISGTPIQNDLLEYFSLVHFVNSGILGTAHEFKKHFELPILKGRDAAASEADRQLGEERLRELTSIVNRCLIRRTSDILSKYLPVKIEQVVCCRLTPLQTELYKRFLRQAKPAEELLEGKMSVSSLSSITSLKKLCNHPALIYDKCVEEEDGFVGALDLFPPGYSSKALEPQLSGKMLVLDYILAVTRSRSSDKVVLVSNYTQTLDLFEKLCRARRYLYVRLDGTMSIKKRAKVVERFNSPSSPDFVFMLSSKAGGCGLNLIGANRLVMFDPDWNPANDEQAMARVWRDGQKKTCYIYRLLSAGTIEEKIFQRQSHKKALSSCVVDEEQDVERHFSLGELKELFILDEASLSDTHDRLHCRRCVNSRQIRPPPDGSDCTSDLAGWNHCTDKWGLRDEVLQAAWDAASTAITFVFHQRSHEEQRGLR

[12] = target: DNA repair protein RAD52 homolog (Homo sapiens, UniProt P43351); type: functional, biochemical
[13] = viability loss in HEK293T cells – cell-based, cherry-picks, cytotoxicity control for HIV Vif inhibitor project, dose response (AID 652208); type: functional
[14] = target: T3, Tyrosine-protein phosphatase non-receptor type 22 (Homo sapiens, UniProt Q9Y2R2); experiment: PTPN22 enzyme inhibitors – biochemical, fluorescence, LYP catalytic domain, selectivity assay for LMPTP inhibitor project, dose response (AID 652006); type: functional; conditions: read-out: IC50_Mean
T3 sequence (Q9Y2R2 whole entry): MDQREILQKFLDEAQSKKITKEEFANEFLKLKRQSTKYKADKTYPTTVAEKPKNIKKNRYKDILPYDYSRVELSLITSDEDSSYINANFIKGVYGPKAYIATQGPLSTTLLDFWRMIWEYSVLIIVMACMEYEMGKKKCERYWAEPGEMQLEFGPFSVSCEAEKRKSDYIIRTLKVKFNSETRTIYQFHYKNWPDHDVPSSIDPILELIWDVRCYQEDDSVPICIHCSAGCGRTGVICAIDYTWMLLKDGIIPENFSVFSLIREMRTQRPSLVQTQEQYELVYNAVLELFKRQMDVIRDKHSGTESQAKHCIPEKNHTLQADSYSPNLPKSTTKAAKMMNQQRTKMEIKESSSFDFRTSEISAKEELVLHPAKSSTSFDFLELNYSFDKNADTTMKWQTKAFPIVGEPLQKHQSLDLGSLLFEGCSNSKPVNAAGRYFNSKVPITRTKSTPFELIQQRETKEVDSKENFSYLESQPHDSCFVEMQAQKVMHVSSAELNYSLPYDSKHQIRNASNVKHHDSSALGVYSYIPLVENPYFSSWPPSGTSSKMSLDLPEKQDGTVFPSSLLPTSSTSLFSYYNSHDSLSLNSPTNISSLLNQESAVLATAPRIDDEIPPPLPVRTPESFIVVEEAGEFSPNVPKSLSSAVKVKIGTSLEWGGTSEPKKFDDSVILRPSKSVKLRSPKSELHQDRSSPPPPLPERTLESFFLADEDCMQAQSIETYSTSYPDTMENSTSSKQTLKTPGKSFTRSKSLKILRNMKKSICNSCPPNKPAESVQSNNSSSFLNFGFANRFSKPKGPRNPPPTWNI

[15] = target: Low molecular weight phosphotyrosine protein phosphatase (Homo sapiens, UniProt P24666); type: functional; conditions: read-out: IC50_Mean;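 note: Dose-response confirmation assay measuring inhibition of LMPTP enzyme activity by fluorescence intensity read-out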
[16] = Fluorescence-based cell-based high throughput dose response assay for inhibitors of the interaction of nucleotide-binding oligomerization domain containing 2 (NOD2) and the receptor-interacting serine-threonine kinase 2 (RIPK2).; type: functional; conditions: Homo sapiens
[17] = loss of viability in HepG2 cells – cell-based, CellTiter-Glo, cherry-picked, cytotoxicity control for Shn3 inhibitor project, dose response (AID 624134); type: functional
[18] = target: Beta Lactamase (Pseudomonas aeruginosa, UniProt Q932Y6); experiment: BLA reporter interference, concentration series – BLA reporter cells, FRET fluorescence, artefact control for NOD2-RIPK2 interaction inhibitor project, dose response (AID 651552); type: functional, cell-based
[19] = reduction of Shn3 3'UTR-driven luciferase in osteoblasts – cell-based, Clone20 osteoblasts, firefly luciferase, cherry-picked, dose response (AID 624132); type: functional;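 note: firefly luciferase luminescence from reporter carrying the Shn3 3'UTR in osteoblasts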
[20] = non-specific 3'UTR reporter inhibition in Clone20-Shn3RL – cell-based, Renilla luciferase, cherry-picked, counter-screen for Shn3 inhibitor project, dose response (AID 624133); type: functional
[21] = target: Paired box protein Pax-8 (Homo sapiens, UniProt Q06710); experiment: PAX8 transcriptional activity inhibition in RMG-I – RMG-I cells, luciferase, cherry-pick, dose response (AID 687027); type: functional, cell-based;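 note: luciferase reporter driven by Pax8 target thyroperoxidase promoter measured by SteadyGlo luminescence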
[22] = target: Beta-lactamase (Pseudomonas aeruginosa, UniProt Q79MP6);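 note: biochemical dose-response test of metallo-beta-lactamase enzyme inhibition, read out by epi-absorbance; purified recombinant IMP-1 metallo-beta-lactamase with nitrocefin as substrate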
[23] = target: Beta-lactamase (Salmonella choleraesuis (strain SC-B67), UniProt Q5J463)
[24] = target: T4, ATP-dependent translocase ABCB1 (Homo sapiens, UniProt P08183); experiment: P-gp JC-1 efflux blockade concentration-response – Jurkat-DNR cells, flow cytometry, set 2, dose response (AID 504569); type: functional; conditions: read-out: EC50_MICROM_;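 note: potency of pump inhibitors that raise cellular JC-1 green fluorescence up to the nicardipine level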
[25] = target: T4, ATP-dependent translocase ABCB1; experiment: inhibition of BCRP-mediated JC-1 efflux – Ig-MXP3 cells, flow cytometry, set 2, dose response (AID 504566); type: functional; conditions: read-out: EC50_MICROM_;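 note: flow cytometry median green fluorescence of retained JC-1 dye; potency of efflux pump inhibition measured as rising substrate retention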
[26] = target: Steroidogenic factor 1 (Homo sapiens, UniProt Q13285); experiment: Counterscreen for inverse agonists of the liver receptor homolog-1 (LRH-1; NR5A2): Luminescence-based cell-based high throughput dose response assay to identify inverse agonists of the Steroidogenic Factor 1 Nuclear Receptor (SF1; NR5A1).; type: functional
[27] = nonselective StAR promoter luciferase inhibitors – cell-based, luminescence, luciferase reporter, counter-screen for LRH-1 inverse agonist project, dose response (AID 651969); type: functional
[28] = target: Nuclear receptor subfamily 5 group A member 2 (Homo sapiens, UniProt O00482); type: functional, cell-based;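 note: HEK293T cells transfected with LRH-1 and a StAR promoter luciferase reporter; potency for inhibitors that lower LRH-1 driven reporter light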
Nuclear receptor subfamily 5 group A member 2, sequence (O00482 whole entry): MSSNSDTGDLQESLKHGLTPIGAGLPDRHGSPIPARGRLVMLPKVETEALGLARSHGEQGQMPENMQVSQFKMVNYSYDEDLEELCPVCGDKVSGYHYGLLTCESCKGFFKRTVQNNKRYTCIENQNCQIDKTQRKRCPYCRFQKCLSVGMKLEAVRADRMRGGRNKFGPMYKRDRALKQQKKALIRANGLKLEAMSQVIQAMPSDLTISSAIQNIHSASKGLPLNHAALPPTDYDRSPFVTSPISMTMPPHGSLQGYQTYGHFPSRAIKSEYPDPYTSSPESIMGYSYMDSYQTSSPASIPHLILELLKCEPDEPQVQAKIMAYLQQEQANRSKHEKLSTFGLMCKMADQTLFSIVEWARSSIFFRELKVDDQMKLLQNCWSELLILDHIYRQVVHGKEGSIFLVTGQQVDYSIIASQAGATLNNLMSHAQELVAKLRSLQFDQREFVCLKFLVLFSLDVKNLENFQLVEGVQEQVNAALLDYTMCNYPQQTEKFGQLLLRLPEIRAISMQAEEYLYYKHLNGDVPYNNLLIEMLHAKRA

T4 sequence (P08183 whole entry): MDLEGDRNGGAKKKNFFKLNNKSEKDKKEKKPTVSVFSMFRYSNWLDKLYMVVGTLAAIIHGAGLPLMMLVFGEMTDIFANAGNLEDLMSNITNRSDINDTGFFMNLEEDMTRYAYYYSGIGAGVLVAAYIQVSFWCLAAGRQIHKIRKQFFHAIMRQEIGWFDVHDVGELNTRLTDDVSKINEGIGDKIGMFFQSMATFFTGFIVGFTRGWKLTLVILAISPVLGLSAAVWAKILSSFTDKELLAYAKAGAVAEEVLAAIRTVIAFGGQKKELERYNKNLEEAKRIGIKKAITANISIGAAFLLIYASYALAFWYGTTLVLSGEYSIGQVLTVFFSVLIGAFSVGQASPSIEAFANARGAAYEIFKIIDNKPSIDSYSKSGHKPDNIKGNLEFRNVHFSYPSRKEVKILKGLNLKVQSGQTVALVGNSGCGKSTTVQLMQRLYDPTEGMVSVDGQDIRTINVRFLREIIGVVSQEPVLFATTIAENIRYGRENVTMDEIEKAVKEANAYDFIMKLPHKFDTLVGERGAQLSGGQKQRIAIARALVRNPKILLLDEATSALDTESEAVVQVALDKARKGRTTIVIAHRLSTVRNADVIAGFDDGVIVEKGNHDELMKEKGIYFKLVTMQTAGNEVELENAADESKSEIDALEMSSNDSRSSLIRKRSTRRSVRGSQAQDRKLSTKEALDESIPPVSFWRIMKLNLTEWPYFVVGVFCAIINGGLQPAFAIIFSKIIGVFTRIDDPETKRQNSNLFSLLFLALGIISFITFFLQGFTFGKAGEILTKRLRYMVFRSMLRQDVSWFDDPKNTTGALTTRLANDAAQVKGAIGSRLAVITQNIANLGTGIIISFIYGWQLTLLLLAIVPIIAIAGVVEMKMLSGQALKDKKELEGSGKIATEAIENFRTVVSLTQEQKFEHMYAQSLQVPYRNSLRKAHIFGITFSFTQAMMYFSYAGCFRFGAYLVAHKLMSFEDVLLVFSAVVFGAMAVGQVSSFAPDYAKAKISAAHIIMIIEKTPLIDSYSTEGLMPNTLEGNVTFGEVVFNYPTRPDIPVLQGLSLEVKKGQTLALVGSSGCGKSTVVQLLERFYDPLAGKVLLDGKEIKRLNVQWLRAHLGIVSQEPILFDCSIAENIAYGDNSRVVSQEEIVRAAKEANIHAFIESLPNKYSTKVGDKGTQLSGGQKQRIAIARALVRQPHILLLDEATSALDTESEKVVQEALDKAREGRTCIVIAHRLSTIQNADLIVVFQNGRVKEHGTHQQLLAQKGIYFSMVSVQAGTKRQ
Steroidogenic factor 1, sequence (Q13285 whole entry): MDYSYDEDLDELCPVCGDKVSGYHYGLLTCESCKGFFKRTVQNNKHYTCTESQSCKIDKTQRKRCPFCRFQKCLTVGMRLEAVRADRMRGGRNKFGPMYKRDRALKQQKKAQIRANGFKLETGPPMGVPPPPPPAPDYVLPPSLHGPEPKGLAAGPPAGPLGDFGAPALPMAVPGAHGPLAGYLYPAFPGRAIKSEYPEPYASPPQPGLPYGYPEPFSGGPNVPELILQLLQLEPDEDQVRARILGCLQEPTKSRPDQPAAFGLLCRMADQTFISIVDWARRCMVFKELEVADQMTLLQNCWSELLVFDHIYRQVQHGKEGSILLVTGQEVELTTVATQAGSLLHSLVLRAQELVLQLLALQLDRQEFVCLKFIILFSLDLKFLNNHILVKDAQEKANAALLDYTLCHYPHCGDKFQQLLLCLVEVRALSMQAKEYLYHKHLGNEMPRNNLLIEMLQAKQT
Beta-lactamase (Pseudomonas aeruginosa, UniProt Q79MP6), sequence (Q79MP6 whole entry): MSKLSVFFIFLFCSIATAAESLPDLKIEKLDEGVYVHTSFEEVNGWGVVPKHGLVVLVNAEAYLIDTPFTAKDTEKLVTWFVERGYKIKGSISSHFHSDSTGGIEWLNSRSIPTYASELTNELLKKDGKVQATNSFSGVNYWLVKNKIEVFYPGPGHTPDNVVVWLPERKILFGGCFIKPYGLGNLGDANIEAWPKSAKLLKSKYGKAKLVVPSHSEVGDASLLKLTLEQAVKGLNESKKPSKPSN
Paired box protein Pax-8, sequence (Q06710 whole entry): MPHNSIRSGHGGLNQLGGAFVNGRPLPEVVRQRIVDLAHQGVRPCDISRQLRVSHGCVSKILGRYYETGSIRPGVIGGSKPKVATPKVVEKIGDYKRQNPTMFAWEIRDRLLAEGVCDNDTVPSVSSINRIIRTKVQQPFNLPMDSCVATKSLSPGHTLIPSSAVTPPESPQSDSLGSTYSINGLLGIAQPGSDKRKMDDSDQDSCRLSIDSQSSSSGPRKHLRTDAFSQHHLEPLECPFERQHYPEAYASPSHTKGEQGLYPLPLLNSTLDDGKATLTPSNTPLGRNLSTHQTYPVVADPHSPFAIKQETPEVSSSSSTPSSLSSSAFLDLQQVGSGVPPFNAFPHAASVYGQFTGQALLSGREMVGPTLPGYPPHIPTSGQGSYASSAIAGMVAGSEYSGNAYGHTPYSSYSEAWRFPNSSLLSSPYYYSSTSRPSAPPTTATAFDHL
Beta Lactamase, sequence (Q932Y6 whole entry): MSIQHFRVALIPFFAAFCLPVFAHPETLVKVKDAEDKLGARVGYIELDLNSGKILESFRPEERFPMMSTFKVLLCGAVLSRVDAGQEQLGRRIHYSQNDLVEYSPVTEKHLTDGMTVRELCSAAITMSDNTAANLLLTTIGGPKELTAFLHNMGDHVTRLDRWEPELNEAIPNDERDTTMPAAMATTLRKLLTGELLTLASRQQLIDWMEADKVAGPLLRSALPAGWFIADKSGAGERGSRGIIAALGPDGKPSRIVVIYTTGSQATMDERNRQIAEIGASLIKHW
DNA repair protein RAD52 homolog, sequence (P43351 whole entry): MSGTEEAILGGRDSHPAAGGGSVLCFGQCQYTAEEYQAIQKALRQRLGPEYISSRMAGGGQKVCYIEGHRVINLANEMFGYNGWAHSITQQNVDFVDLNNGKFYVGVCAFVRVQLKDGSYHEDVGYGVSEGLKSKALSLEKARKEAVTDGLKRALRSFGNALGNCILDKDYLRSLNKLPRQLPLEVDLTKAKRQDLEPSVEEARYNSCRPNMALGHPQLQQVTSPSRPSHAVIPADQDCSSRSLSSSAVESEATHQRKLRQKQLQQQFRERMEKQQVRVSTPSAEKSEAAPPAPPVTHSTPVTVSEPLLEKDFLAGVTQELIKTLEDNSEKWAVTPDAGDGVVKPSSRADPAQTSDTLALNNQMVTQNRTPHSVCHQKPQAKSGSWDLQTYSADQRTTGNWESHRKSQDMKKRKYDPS
Beta-lactamase (Salmonella choleraesuis (strain SC-B67), UniProt Q5J463), sequence (Q5J463 whole entry): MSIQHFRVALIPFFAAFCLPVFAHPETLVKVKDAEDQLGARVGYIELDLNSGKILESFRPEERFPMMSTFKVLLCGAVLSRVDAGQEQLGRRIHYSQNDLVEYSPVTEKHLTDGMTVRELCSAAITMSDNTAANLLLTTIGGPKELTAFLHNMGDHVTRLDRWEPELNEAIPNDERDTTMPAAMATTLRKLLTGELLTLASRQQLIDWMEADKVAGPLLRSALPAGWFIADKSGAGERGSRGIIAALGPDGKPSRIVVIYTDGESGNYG
Low molecular weight phosphotyrosine protein phosphatase, sequence (P24666 whole entry, the tested form may be a part): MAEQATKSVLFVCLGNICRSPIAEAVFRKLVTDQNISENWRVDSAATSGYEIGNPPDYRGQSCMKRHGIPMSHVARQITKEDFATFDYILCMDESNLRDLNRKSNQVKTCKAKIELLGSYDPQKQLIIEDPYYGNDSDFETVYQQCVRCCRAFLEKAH

For `CC(C)N(C(=O)[C@H]1C[C@H](CC(=O)NCCC2=CCCCC2)C(=O)N2CCc3c([nH]c4ccc(Cl)cc34)[C@]12C)C(C)C`, the IC50 [1] was 3.6 µM (active), the EC50 [2] was > 53 µM (inactive) and the IC50 [3] was 4.28 µM (active).

In the case of `C[C@H](CO)N1C[C@H](C)[C@H](CN(C)Cc2ccccc2)Oc2c(NC(=O)c3ccncc3)cccc2C1=O`, the IC50 [4] was > 100 µM (inactive), the IC50 [5] was 75.4 µM (inactive) and the IC50 [6] was 20.6 µM (inactive). For the same compound, the IC50 [7] was > 100 µM (inactive), the AC50 [8] was 0.208 µM (active) and the IC50 [9] was 20.6 µM (inactive).

In the case of `COc1cc2ccccc2cc1C(=O)N(CCN(C)C)c1nc2c(OC)ccc(OC)c2s1`, the AC50 [10] was 18.1 µM (active), the AC50 [11] was 100 µM (inactive) and the AC50 [12] was 7.36 µM (active).

With `Cc1cc(N2CCN(S(=O)(=O)c3ccc(Cl)c(Cl)c3)CC2)c2ccccc2n1` the AC50 [13] was 50.5 µM (active), the IC50 [14] was 35.8 µM (inactive) and the IC50 [15] was 19.5 µM (active).

For `CC1CC(C)CC(C)C(O)C(C#N)=CC=CCC(C2CCCC2C(=O)O)OC(=O)CC(O)C(C)C1` (stereo not drawn), the IC50 [16] was 49.8 µM (inactive), the AC50 [17] was 10.2 µM (active) and the IC50 [18] was 49.8 µM (inactive). For the same compound, the AC50 [19] was < 0.26 µM (active), the AC50 [20] was 1.08 µM (active) and the AC50 [21] was < 0.26 µM (active).

In the case of `CC(C)(C)c1ccc(-c2c(C(=O)O)c(C(=O)O)c3n2CSC3)cc1`, the IC50 [22] was 35.1 µM (inactive) and the IC50 [23] was > 59.6 µM (inactive).

For `O=C(Cc1ccccc1)N1CCN(c2cc(-c3ccccc3)nc3cc(-c4cccc(Cl)c4)nn23)CC1`, the EC50 [24] was 3.62 µM (active) and the EC50 [25] was 7.42 µM (active).

In the case of `CCCN(CC(=O)Nc1ccc(C(C)=O)cc1)CC(=O)Nc1ccccc1C`, the IC50 [26] was 0.941 µM (active), the IC50 [27] was 35.9 µM (inactive) and the IC50 [28] was 12 µM (inactive).
